Results from patent US20210393586A1, “Compounds for Use in the Treatment of Bacterial Infections” (Universität Konstanz, priority 2018, published 2021).

Experiments:
P. aeruginosa PA01 = test: Bacterial growth curve analysis, P. aeruginosa PAO1; assay type: cell-based, Pseudomonas aeruginosa; conditions: concentrations up to 100 μM, 27 h at 37° C.
Procedure: (§1) In a sterile 15 mL polypropylene centrifuge tubes with screw caps (Roth) 20 μL of a respective DMSO Stock of the compounds represented by Formulas (2) and (5), or 20 μL DMSO as vehicle control was added for 1% final DMSO concentration. Then, 2 mL of LB medium and 6 μL of an overnight culture of P. aeruginosa PA01 or PA14 was added per sample. The samples were incubated for 27 h at 37° C. (190 rpm). At indicated incubation times 50 μL LB medium and 50 μL of culture were transferred in a cuvette, mixed and the adsorption measured at 600 nm.

[1] = system: quinolone and phenazine production of P. aeruginosa PA14; test: Quinolone and phenazine inhibition in P. aeruginosa PA14 cultures, LC-MS/MS of supernatants; assay type: cell-based, Pseudomonas aeruginosa
Procedure: (§2) A LC-MS/MS method was established using characteristic mass transitions for quantitative analysis of metabolites in the supernatants of P. aeruginosa (Table 1, FIGS. 13 to 15). A library of phenazines and synthetic AQs and AQNOs served as standards (Szamosvári, D.; Böttcher, T., Angew Chem Int Ed Engl 2017, 56 (25), 7271-7275). There were also analyzed phenazines, including phenazine-1-carboxamide (PHZ-CA), 1-hydroxyphenazine (1-OH-PHZ), and pyocyanin (PYO), which are produced as virulence factors partially under control of the PQS quorum sensing system (FIG. 16a).
(§3) Ultra-high performance liquid chromatography was performed on a Dionex Ultimate 3000 UHPLC (Thermo Fisher Scientific, Waltham, Mass.) using a Nucleodur C18 Gravity-SB 150×2 mm, 3 μm column (Macherey-Nagel). The flow rate was 0.5 mL/min and the columns temperature was held at 40° C. The injection volume was 5 μL using pick up injection mode. Eluent A was 0.1% formic acid in water and eluent B was acetonitrile. The gradient was 20-100% B in 10 min, 100% B for 2 min, 100-20% B in 1 min and 20% B for 2 min. MS/MS analysis was performed by a Finnigan™ TSQ® Quantum (Thermo electron corporation) mass spectrometer in the SRM (Selected Reaction Monitoring) scan mode. As ion source a heated-electrospray ionization (HESI-II probe, Thermo scientific) was used. In the optimized conditions the ion spray voltage was 3500 V, vaporizer temperature 300° C., capillary temperature 380° C., sheath gas pressure 60 psi, ion sweep gas pressure 2 psi, aux gas 10 psi. The tube lens offset was 80 V and skimmer offset 0. Data were acquired in a mass range of m/z 130-350, and MS/MS acquisition of all compounds was performed in positive mode and fixed collision energy of 30 eV. Dwell time was 0.050 sec for all compounds.
The software Quan Browser Thermo Xcalibur 3.1.66.10 was used for quantitative analysis. The standard peak area of the product ions was fitted by linear regression versus the known concentrations to generate a standard curve. […]

P. aeruginosa PA14 [2] = test: Bacterial growth curve analysis, P. aeruginosa PA14; assay type: cell-based, Pseudomonas aeruginosa; conditions: concentrations up to 100 μM, 27 h at 37° C.
Procedure: as §1

[3] = system: quinolone and phenazine production of P. aeruginosa PAO1; test: Quinolone and phenazine inhibition in P. aeruginosa PAO1 cultures, LC-MS/MS of supernatants; assay type: cell-based, Pseudomonas aeruginosa
Procedure: as §2, §3
The software Quan Browser Thermo Xcalibur 3.1.66.10 was used for quantitative analysis. The standard peak area of the product ions was fitted by linear regression versus the known concentrations to generate a standard curve.
Cultures of P. aeruginosa strains PAO1 and PA14 were incubated with different concentrations of the compound represented by Formula (2) for 24 h and extracted culture supernatants were used for LC-MS/MS analysis.
10 μL of a respective DMSO stock solution of compound represented by Formula (2) or 10 μL DMSO as vehicle control (0.33% final DMSO concentration) was added to 3 mL LB medium in 15 mL polypropylene centrifuge tubes with screw caps (VWR) to obtain final concentrations of 10, 50 and 100 μM. Afterwards 10 μL of a P. aeruginosa PAO1 or PA14 overnight culture was added. The caps of the sample tubes were slightly opened and fixed in a defined position by tape to ensure equal oxygen delivery to all samples. […] (180 rpm). Afterwards, the samples were centrifuged and the supernatants sterile filtered. The inhibition assay was performed in 3-4 biological replicates.
500 μL of sterile supernatant was transferred in 1.5 mL glass vials, 500 μL chloroform was added and vortexed thoroughly. Then, 200 μL of the organic layer was transferred in a clean 1.5 mL glass vial and the solvent evaporated by a gentle stream of nitrogen. The extract was stored at −80° C. until measurement. For analysis, 50 μL acetonitrile/water (1:1) was added to each sample.
MeOH stock solutions of PQS, AQs, AQNOs and phenazines were prepared at 1 mg/mL in glass vials and stored at −80° C. A series of standard solutions was prepared freshly before LC-MS/MS analysis by serial dilutions of the stock solution of each analyte in acetonitrile/water (1:1).

P. aeruginosa PAO1 = test: Minimum inhibitory concentration, P. aeruginosa PAO1; assay type: cell-based; conditions: Pseudomonas aeruginosa; P. aeruginosa PAO1, LB, 24 h at 37° C.
Procedure: (§4) An overnight culture of P. aeruginosa PAO1 or PA14 was diluted 1:1000 in LB media. Afterwards, 99 μL of bacterial suspension and 1 μL of a corresponding stock solution of the compound represented by Formula (2) in DMSO was added to each well of a sterile, round-bottom 96-well plate. The compound represented by Formula (2) was applied in final concentrations of 1000, 500, 100, 50, 10, 5, 1, 0.5, 0.1, 0.05 μM in triplicates. The plate was incubated for 24 h at 37° C. (180 rpm).

PqsD = molecular target: T1, PqsD (Pseudomonas aeruginosa, UniProt P20582); test: Proteomic analysis of active site modification of PqsD after in situ inhibition; assay type: cell-based; conditions: PqsD inhibited in live E. coli cells, tryptic digest, LC-MS
T1 construct: expressed in transfected cells; host or cells: E. coli BL21 containing pDEST/pqsD, induced with anhydrotetracyclin
Procedure: In situ labelling was performed, and 2×SDS loading buffer was added directly to the resulting lysates. After SDS-PAGE and Coomassie staining, the protein band corresponding to PqsD was cut out of the gel. Then, tryptic digestion, sample preparation and LC-MS analysis were performed: Coomassie gel bands were washed in MilliQ for 15 sec, bands cut as close as possible and placed in Eppendorf tubes. For reduction and alkylation, a solution of 10 mM DTT in 50 mM NH4CO3 was added and incubated for 60 min at 56° C. The DTT solution was removed and a solution of 50 mM iodoacetamide in 50 mM NH4CO3 was added and incubated for 60 min at room temperature (rt). In a final washing step, the gel pieces were washed with 100 μL MilliQ water and 100 μL 50 mM NH4CO3 solution, then the solution was removed, and the gel dehydrated with acetonitrile/MilliQ water (3:2). The washing step was repeated until the gel pieces turned colorless. Next, the dehydration solution was removed, and acetonitrile was added for 10 sec before drying on air until complete dryness. The gel pieces were incubated for […] on ice in a freshly prepared cold buffer containing trypsin (10.0 ng/μL) and 50 mM NH4CO3. […] The combined washes and elutions were dried via SpeedVac and analyzed by an Orbitrap Fusion with EASY-nLC1200 instrument.

P. aeruginosa PA14 [4] = test: Minimum inhibitory concentration, P. aeruginosa PA14; assay type: cell-based; conditions: Pseudomonas aeruginosa; P. aeruginosa PA14, LB, 24 h at 37° C.
Procedure: as §4

[5] = system: HHQ production of P. aeruginosa PAO1; test: 2-ABA feeding of P. aeruginosa PAO1, HHQ quantified by LC-MS/MS; assay type: cell-based, Pseudomonas aeruginosa; conditions: P. aeruginosa PAO1 grown with 50 μM compound, 2-ABA total 12 mM, 11 h at 37° C.
Procedure: 10 μL of a 5 mM stock of the compound represented by Formula (2) in DMSO or 10 μL of DMSO as vehicle control (1% final DMSO concentration) was added in 1 mL LB medium in 15 mL polypropylene centrifugal tubes. Then, 5 μL P. aeruginosa PAO1 overnight culture was added and grown at 37° C. (190 rpm). Due to the instability of 2-ABA, it was added in six portions. After several time points (6 h, 6.5 h, 7 h, 7.5 h, 8 h and 10 h) the cultures treated with the compound represented by Formula (2) were supplemented with 20 μL 100 mM 2-ABA stock in basic solution (1% NH4OH) or 20 μL basic solution (1% NH4OH) as vehicle control. To investigate the effect of basic solution, the DMSO containing control samples were supplemented with same amounts of basic solution compared to treated samples. The total amount of 2-ABA added to each sample was 12 mM and the pH of the cultures after addition of the total volume of basic solution was under pH 8. After 11 h cultures were centrifuged, supernatants sterile filtered and HHQ extracted and quantified by LC-MS/MS according to the previously described protocol.

T1 sequence (P20582 whole entry): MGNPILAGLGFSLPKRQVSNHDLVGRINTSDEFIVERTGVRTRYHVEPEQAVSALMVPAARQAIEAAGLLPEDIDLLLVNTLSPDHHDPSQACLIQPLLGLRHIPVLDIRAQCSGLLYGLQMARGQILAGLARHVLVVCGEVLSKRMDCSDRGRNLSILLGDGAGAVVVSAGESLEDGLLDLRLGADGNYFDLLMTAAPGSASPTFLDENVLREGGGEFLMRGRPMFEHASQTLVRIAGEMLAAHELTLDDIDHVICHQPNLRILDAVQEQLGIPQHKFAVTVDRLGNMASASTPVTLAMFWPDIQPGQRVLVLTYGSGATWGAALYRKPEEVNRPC

SMILES | growth (OD 600 nm growth curve) (P. aeruginosa PA01) | inhibition of quinolone production ([1]; 100 μM, 27 h at 37° C. (FIG. 20b)) | growth (OD 600 nm growth curve) (P. aeruginosa PA14 [2]) | inhibition of quinolone production ([3]; P. aeruginosa PAO1, 100 μM, 27 h at 37° C. (FIG. 20a)) | MIC (P. aeruginosa PAO1) [µM] | site of covalent binding in PqsD (six cysteines in total) (PqsD) | MIC (P. aeruginosa PA14 [4]) [µM] | HHQ production after external addition of 2-ABA to inhibited culture [5] | production of all major quorum sensing signals, PQS and the chain length congeners of HHQ ([1]; compared with PAO1 (complete inhibition between 50 μM and 100 μM), 24 h) | intensity of quinolones and phenazines (LC-MS/MS chromatograms) ([1]; increasing concentrations 10, 50, 100 μM, 24 h) | production of all major quorum sensing signals, PQS and the chain length congeners of HHQ ([3]; P. aeruginosa PAO1, between 50 μM and 100 μM, 24 h) | intensity of quinolones and phenazines (LC-MS/MS chromatograms) ([3]; P. aeruginosa PAO1, increasing concentrations 10, 50, 100 μM, 24 h) | IC50 ([3]; Pseudomonas aeruginosa, PAO1, 24 h, read-out: average IC50 for production of all major quorum sensing signals, PQS and the chain length congeners of HHQ) [µM] | production of quinolone N-oxide congeners incl. HQNO, NQNO and trans-Δ1-NQNO ([3]; dose response manner, 10, 50, 100 μM, strain not given, 24 h) | phenazine production (1-OH-PHZ, PHZ-CA, pyocyanin) ([3]; strongest for 1-OH-PHZ and weakest for pyocyanin, strain not given, 24 h)
O=C(CCl)c1cccc2cc[nH]c12 [Formula (5)] | largely unaffected | observed | largely unaffected | observed | – | – | – | – | – | – | – | – | – | – | –
Nc1ccccc1C(=O)CCl [Formula (2), 2′-amino-1-chloro-acetophenone] | largely unaffected | – | largely unaffected | – | > 1000 | only bound to the active site cysteine (Cys112) | > 1000 | partially restored | slightly lesser degree | considerably decreased | completely inhibited | considerably decreased | < 10 | inhibited | down-regulation of phenazines
